Values joined by “and” are separate entries in the source; they are usually repeats but may differ in a detail not shown here. Equal values may be shown once.
Tests used:
[1] = pH stability of aqueous acyclovir sodium under accelerated CO2 permeation conditions (Example 2); assay type: physicochemical; settings: after 3 weeks
Source text: The solution was transferred, under a nitrogen atmosphere, to autoclaved filling equipment contained within a laminar air-flow hood to avoid particle and microbiological contamination. […] The filtered bulk solution and containers were purged with nitrogen during the filling process to avoid CO2 absorption. The process was repeated for polyethylene terephthalate vials and Daikyo Resin CZ vials (sold by Daikyo Gomu Seiko, Ltd, reported in some references as polymethylpentene).
The samples were tested under accelerated CO2 storage conditions. The samples were placed in three different chambers with elevated CO2 atmospheres, maintained at a concentration of approximately 2%, 5%, and 10% CO2 by volume, for 3 weeks. The pH was measured at various times using a calibrated standard pH meter.

[2] = compatibility with container and seal materials, pH on storage (Example 3); assay type: physicochemical; settings: polypropylene vials, RT and 40° C., three months
Experimental: At various time intervals, the samples were tested for pH. The pH was measured using a calibrated standard pH meter.

[3] = effect of CO2 on pH of aqueous acyclovir solution under accelerated conditions (Example 6); assay type: physicochemical
Experimental: The desiccators were evacuated and filled with the CO2 standards three consecutive times at the beginning of the experiment, and the filling process was repeated each week and each time the desiccators were opened for removing samples. The pressure in the desiccators was maintained at 1 atm. The pH was measured at various time intervals.

[4] = calculated pH over time, 10 mL vial, normal atmospheric storage (Example 7)
Experimental: (§1) The atmospheric CO2 content, measured using a Dickson, Model CO2 X carbon dioxide recorder, was measured as 0.07% by volume and this value was used in the calculation.

[5] = calculated pH over time, 20 mL vial, normal atmospheric storage (Example 8)
Experimental: as §1

[6] = measured pH drop over 21 months under normal atmospheric conditions (Example 9); assay type: physicochemical
Experimental: For each vial, one half was stored in the upright position and the other half was stored in the inverted position. The pH was measured over time using a standard calibrated pH meter.

[7] = aqueous solubility; assay type: physicochemical; settings: water, determined experimentally
[8] = pH at which precipitation or haziness is observed; assay type: physicochemical
Source text: As indicated earlier, the pH of aqueous acyclovir sodium must be maintained above the pHp to avoid the formation of precipitates.

[9] = cited from earlier work
[10] = depending on the desired concentration; cited from earlier work
[11] = effect of CO2 on pH of unbuffered aqueous sodium hydroxide in polypropylene vials (Example 1); assay type: physicochemical
Source text: This example represents the effect of CO2 on the pH of an unbuffered aqueous sodium hydroxide solution. […] The solution was placed in a series of identical polypropylene vials which were sealed and separated into two groups (Groups A and B). The vials were identical in every relevant parameter, including average wall thickness, surface area, and stoppers. The sodium hydroxide solution in all samples were taken from the same lot and each vial was filled under identical filling conditions. Samples in group A were stored under normal atmospheric conditions. Samples in group B were placed in a 5.8 L desiccator along with a beaker containing 50 mL of 1N aq. HCl (0.05 moles HCl). After carefully adding 100 mL of 0.5M NaHCO3 (0.05 moles NaHCO3) to the HCl solution, the desiccator was immediately sealed to prevent escape of the resulting CO2 (approximately 0.05 moles CO2). The calculated concentration of CO2 in the chamber was approximately 18% by volume. The samples were allowed to stand for 3 weeks under the aforesaid conditions. The pH of the samples in the containers was measured using a calibrated standard pH meter.

Nc1nc2c(ncn2COCCO)c(=O)[nH]1 [acyclovir sodium]
precipitate ([1]; 2%, 5% and 10% CO2): no precipitate was observed
pH decline ([1]; 5% CO2): 0.33 pH units
pH decline ([1]; 10% CO2): 0.48 pH units
precipitation upon visual inspection [2]: no precipitation was observed
impurities by HPLC ([2]; Teflon coated stoppers): no significant impurities were generated
initial pH in the absence of CO2 ([3]; 54.9 mg/mL, with purging headspace): 11.3
Measured pH ([3]; 2.00% CO2, 10 mL vials, 14 days): 11.10
Measured pH ([3]; 2.00% CO2, 10 mL vials, 16 days): 11.08
Measured pH ([3]; 2.00% CO2, 10 mL vials, 20 days): 11.03
Measured pH ([3]; 2.00% CO2, 10 mL vials, 23 days): 11.03
Measured pH ([3]; 2.00% CO2, 10 mL vials, 27 days): 11.01
Measured pH ([3]; 2.00% CO2, 20 mL vials, 14 days): 11.12
Measured pH ([3]; 2.00% CO2, 20 mL vials, 16 days): 11.10
Measured pH ([3]; 2.00% CO2, 20 mL vials, 20 days): 11.07
Measured pH ([3]; 2.00% CO2, 20 mL vials, 23 days): 11.05
Measured pH ([3]; 2.00% CO2, 20 mL vials, 27 days): 11.02
Measured pH ([3]; 10.1% CO2, 10 mL vials, 6 days): 10.94
Measured pH ([3]; 10.1% CO2, 10 mL vials, 9 days): 10.87
Measured pH ([3]; 10.1% CO2, 10 mL vials, 14 days): 10.70
Measured pH ([3]; 10.1% CO2, 20 mL vials, 6 days): 10.97
Measured pH ([3]; 10.1% CO2, 20 mL vials, 9 days): 10.90
Measured pH ([3]; 10.1% CO2, 20 mL vials, 14 days): 10.74
shelf life [4]: greater than 24 months
shelf life [5]: greater than 24 months
precipitates ([6]; after 21 months): no precipitates were detected
acceptable for parenteral administration ([6]; normal atmospheric conditions, upright or inverted): at least 21 months
shelf life ([6]; real time, normal atmospheric conditions): at least 21 months
solubility [7]: 644 mg/mL
pH at which precipitation becomes apparent ([8]; 54.9 mg/mL aqueous solution, actual observations): < 10.8
pH below which haziness is observed ([8]; about 55 mg/mL acyclovir sodium): < 10.8

Nc1nc2c(ncn2COCCO)c(=O)[nH]1 [acyclovir, 2-amino-1,9-dihydro-9-[(2-hydroxy-ethoxy)methyl]-6H-purin-6-one]
water solubility, neutral form ([9]; undissociated acyclovir, in words): virtually insoluble in water
aqueous solubility, neutral form ([9]; water, ambient temperature, Pharm. Res., vol. 8, p. 1087 (1991)): 6.2 mM and ~6.2 mM
pH required to maintain an aqueous solution [10]: 10-11

[Na+].[OH-] [sodium hydroxide]
pH ([11]; Group A normal atmosphere, 1 week): 11.22
pH ([11]; Group A normal atmosphere, 3 weeks): 11.21
pH ([11]; Group A normal atmosphere, initial): 11.31
pH ([11]; Group B CO2 chamber (approx. 18% CO2 by vol.), 3 weeks): 6.37
pH ([11]; Group B CO2 chamber (approx. 18% CO2 by vol.), initial): 11.31

Source: patent US6136814A (priority 1997, dated 2000)
